Assays:
[1] = system: C. elegans; settings: 1 mM trigonelline chloride, day 8 old worms, vs control (FIG. 8)
Description: Absolute quantification of the mtDNA copy number in wild type N2 worms was performed by real-time PCR. Relative values for nduo-1, and act-1 were compared within each sample to generate a ratio representing the relative level of mitochondrial DNA per nuclear genome. The average of at least two technical repeats was used for each biological data point. Each experiment was performed on at least ten independent biological samples (individual worms). Trigonelline treatment with 1 mM trigonelline chloride and experimental measurements were started at Day 1 of wild type N2 worm adulthood, in a regimen of chronic exposure till experiments termination.

[2] = system: RW1596 (myo-3p::GFP) worms; settings: 1 mM trigonelline chloride, 11 day old worms vs age matched control
Description: RW1596 (myo-3p::GFP) worms were collected at Day 1 (young adults) and at Day 11 (aged animals) for muscle integrity assessment. Worms were immobilized with tetramisole and analyzed by confocal microscopy, to assess the muscle fibers morphology shown by GFP fluorescence imaging. Trigonelline treatment with 1 mM trigonelline chloride and experimental measurements were started at Day 1 of wild type N2 worm adulthood, in a regimen of chronic exposure till experiments termination.

[3] = system: Human Skeletal Muscle Myotubes (HSMM); settings: 500 μM, 6 h, relative to control, LC-MS (FIG. 2A)
Description: Human primary myoblasts from two different donors were seeded in 6 well plates at a density of 200′000 cells per well in skeletal muscle growth medium (SKM-M, AMSbio). After one day, the differentiation was induced by a medium change for 4 days using differentiation culture medium (Gibco No. 31330-028). Cells were treated with isotopically labelled trigonelline (^13C carbonyl; 3^2H on methyl) for 6 h.
Cell extracts were separated on a Vanquish UHPLC+focused LC system (Thermo Scientific) with a hydrophilic liquid chromatography (HILIC) iHILIC-Fusion(P) column (Hilicon) carrying the dimensions 150×2.1 mm, 5 μm and a guard column (iHILIC-fusion(P), Hilicon) in front. The separation of metabolites was achieved by applying a linear solvent gradient in normal phase at 0.25 mL/min flow rate and 35° C. of temperature.
The eluting metabolites were analyzed with an Orbitrap Fusion Lumos mass spectrometer (Thermo Scientific) with a heated electrospray ionization (H-ESI) source in positive and negative mode at a resolution of 60,000 at m/z of 200. Instrument control and data analysis were conducted using Xcalibur (Thermo Scientific).

[4] = system: C. elegans; settings: 1 mM, day 8 and day 11 old worms, vs control (FIG. 7D)
Excerpt: 45 to 60 worms per condition were manually scored for mobility after poking. Worms that were unable to respond to any repeated stimulation were scored as dead. […] Trigonelline treatment and experimental measurements were started at Day 1 of wild type N2 worm adulthood, in a regimen of chronic exposure til experiments termination.

[5] = system: C. elegans
Description: C. elegans mobility test was performed using the Movement Tracker software (Mouchiroud, L. et al. Curr Protoc Neurosci 77, 8.37.1-8.37.21 (2016)). The experiments were repeated at least twice. Trigonelline treatment and experimental measurements were started at Day 1 of wild type N2 worm adulthood, in a regimen of chronic exposure till experiments termination.

[6] = system: C. elegans; settings: 1 mM, chronic exposure from Day 1 adulthood, wild type N2 (FIG. 7A)
Description: Worm lifespan tests were performed using about 100 animals per condition and scored manually every other day. Trigonelline treatment and experimental measurements were started at Day 1 of wild type N2 worm adulthood, in a regimen of chronic exposure till experiments termination.

[7] = system: C57BL/6JRj male mice; test: Enzymatic NAD+ measurement in mouse liver after oral gavage; format: in vivo; settings: equimolar of 300 mg/kg trigonelline, 120 minutes (FIG. 5)
Description: 10 weeks C57BL/6JRj male mice received trigonelline (sigma #T5509) or fenugreek seed extract enriched in trigonelline (40.45% trigonelline) by oral gavage (equimolar of 300 mg/kg trigonelline, n=8/group). After 120 minutes treatment, the liver was harvested and flash frozen in liquid nitrogen. NAD^+ was measured in liver using an enzymatic method adapted from Dall, M., et al., Mol Cell Endocrinol, 2018. 473: p. 245-256.

[8] = system: Human Skeletal Muscle Myotubes (HSMM); test: Colorimetric NAD+ quantification in differentiated human primary myoblasts; format: cell-based; settings: 16 h, different doses (FIG. 4)
Description: After one day, the differentiation is induced by a medium change for 4 days. Cells were treated with synthetic trigonelline monohydrate (FIG. 4A) or with Fenugreek seed extract enriched in trigonelline containing 40.45% trigonelline (FIG. 4B) for 16 h at difference doses. NAD^+ was measured using colorimetric NAD^+ quantification assay (Biovision NAD^+/NADH Quantitation Colorimetric Kit #k337-100).

C[n+]1cccc(C(=O)[O-])c1 [trigonelline, 1-methylpyridin-1-ium-3-carboxylate]
Mitochondrial expression relative to nuclear expression (nduo-1/act-1, mt/nDNA) [1]: higher | Myofibrillar structure (GFP-tagged myosin) [2]: improved more organized myofibrillar structure | NAD+ levels [3]: enhancement

C[n+]1cccc(C(=O)O)c1 [trigonelline chloride]
Stimulated mobility score (worms responsive to a physical stimulus) [4]: more responsive | Distance travelled in advanced aging phase compared to control ([5]; 1 mM (FIG. 7C)): significantly increased | Mean speed compared to the control ([5]; 1 mM, from day 1 adulthood (FIG. 7B)): increased | Increase in lifespan [6]: 21%

C[n+]1cccc(C(=O)O)c1.[OH-] [chemically synthesized trigonelline]
NAD+ content in the liver compared to the control [7]: significant increase | NAD+ content compared to the control [8]: significant increase

Reference: patent US12551472B2, “Compositions and methods using trigonelline to produce intracellular nicotinamide adenine dinucleotide (NAD+) for treating or preventing physiological disorders or states” (SOCIETE DES PRODUITS NESTLE S.A., priority 2019, dated 2026)
